How the values were obtained:
[1] = target: T1, human CB2 receptor (Homo sapiens, UniProt P34972); experiment: GTP-γ-35S binding, agonist mode, human CB2 (Sf9 membranes); format: biochemical
T1 construct: purchased Applied Cell Sciences, Gaithersburg, Md; PerkinElmer Life Sciences, Boston, Mass; host or cells: Sf9 insect cells (recombinant expression), membranes

[2] = system: alcohol-preferring (P) rats; experiment: 12-hour ethanol consumption in alcohol-preferring rats (P rats); format: in vivo, rat; details: female P rats, 15% (v/v) ethanol, continuous free access; Example 2 given p.o.
Excerpt: Evaluate Example 2 for its ability to reduce consumption of ethanol in rats selectively bred for high oral ethanol intake (P rats). In addition, study the effects of Example 2 under conditions in which effects of the compound on motivation or the control of behavior by ethanol could be assessed.
Methods: Study the effects of Example 2 on female, alcohol-preferring (P) rats on alcohol consumption under a continuous free access paradigm. For comparative purposes test the standard opioid antagonist naltrexone. Monitor voluntary consumption of 15% (v/v) ethanol. Suspend Example 2 in vehicle (1% CMC, 0.5% SLS, 0.08% povidone, 0.05% Dow Corning antifoam 1510 US) and give p.o. 3 hours prior to the onset of the dark cycle. In addition, measure locomotor activity via infrared sensor.

[3] = system: Male Sprague Dawley rats; experiment: cFos activation in rat brain, alone and with clozapine; format: in vivo
Excerpt: Characterize Example 2 for its ability to activate gene expression and neurochemical efflux in cortical and subcortical regions and to interact with the prototypical atypical antipsychotic agent clozapine.
Methods: House Male Sprague Dawley rats (155-175 g) for 1 week prior to experimentation. Prepare Example 2 in a vehicle suspension of 1% Sodium carboxymethyl cellulose, 0.5% Sodium lauryl sulfate, 0.05% Antifoam, 0.085% Povidone and administer, to rats (e.g., male Sprague Dawley rats, 155-175 g) p.o. (a dose of 1 or 10 mg/kg). Control rats receive vehicle. Administer clozapine (Sigma) 1 hour later at a concentration of 8 mg/mL in a vehicle solution of 0.4% lactic acid at a dose of 8 mg/kg s.c. Sacrifice animals (n=7-8 per group) by decapitation 2 hours after administration of clozapine or vehicle for clozapine. Remove rapidly whole brains and immediately immerse in isopentane (2-methyl butane) over dry ice. Cut coronal sections through the prefrontal cortex (PFC), nucleus accumbens (NAc) and dorsolateral striatum (DL-Str) at 14 μm and perform Fos immunohistochemistry. Assess atypicality index (Robertson et al., 1994) using the following formula: Atypical Index=(NAcD−NAcV)−(DL-StrD−DL-StrV) where the average number of Fos-li neurons in NAc=nucleus accumbens, D=drug, V=vehicle, DL-Str=dorsolateral striatum. Analyze data using a one-way ANOVA followed by Newman-Keul's post hoc test (Graph Pad Prism 4.03). Set the level of significance at P<0.05.

[4] = system: alcohol-preferring (P) rats; experiment: Progressive ratio responding maintained by ethanol; format: in vivo, rat; details: female P rats, progressive ratio schedule
Excerpt: Assess the ability of Example 2 to reduce the motivational drive controlling ethanol intake.
Methods: Study female alcohol-preferring (P) rats under a progressive ratio schedule in which responding produces 15% ethanol (v/v). Under the progressive ratio schedule, the response requirement for ethanol delivery increases from 1 to 2 and then increments by 2 after 3 ethanol presentations.

[5] = system: diet-induced obese (DIO) male Long-Evans rats; experiment: Feeding model in diet-induced obese (DIO) rats, 14 days; format: in vivo, rat
Excerpt: Methods: Administer Example 2 to diet-induced obese (DIO) male Long-Evans rats. Establish DIO by ad lib feeding from weanling of a diet consisting of 40% fat, 39% carbohydrate and 21% protein caloric content for at least 12 weeks. Define compound potency by T17 (the dose required to produce a difference from the vehicle group of 17 grams). This represents a minimally biologically relevant reduction of 3-4% of body weight compared to vehicle treatment after 2 weeks.

[6] = target: T1, human CB2 receptor; experiment: Antibody-capture SPA GTP-γ-35S binding, antagonist/inverse agonist mode, human CB2 (Sf9 membranes); format: biochemical; details: Human CB2 (Sf9 cells) membranes, Table 1
[7] = target: hCB1 (Homo sapiens, UniProt P21554); experiment: GTP-γ-35S binding, agonist mode, human CB1 (Sf9 membranes); format: biochemical; design: purchased Applied Cell Sciences, Gaithersburg, Md; PerkinElmer Life Sciences, Boston, Mass; host or cells: Sf9 insect cells (recombinant expression), membranes
[8] = system: male Sprague-Dawley rats; experiment: Microdialysis of monoamines and metabolites in prefrontal cortex; format: in vivo; details: rat prefrontal cortex microdialysate; doses as low as 1 mg/kg, p.o.
Experimental: Methods: Implant male Sprague-Dawley rats (260-300 g, Taconic Farms, Germantown, N.Y.) with a cannula (BAS, West Lafayette, Ind.) in the prefrontal cortex (PFC) 5-7 days before the experiment. Insert a concentric type probe with a 4 mm membrane tip extending below the cannula through the cannula about 16 hours before the experiment began and collect the microdialysate from prefrontal cortex and analyze for monoamines and their metabolites. Calculate all microdialysis data as percent change from dialysate basal concentrations with 100% defined as the average of the final three drug pre-injection values and each group having 5-6 rats. Analyze data with ANOVA and follow by a post-hoc Bonferroni test.

[9] = normalised to full agonist methanandamide

T1 sequence (P34972 whole entry): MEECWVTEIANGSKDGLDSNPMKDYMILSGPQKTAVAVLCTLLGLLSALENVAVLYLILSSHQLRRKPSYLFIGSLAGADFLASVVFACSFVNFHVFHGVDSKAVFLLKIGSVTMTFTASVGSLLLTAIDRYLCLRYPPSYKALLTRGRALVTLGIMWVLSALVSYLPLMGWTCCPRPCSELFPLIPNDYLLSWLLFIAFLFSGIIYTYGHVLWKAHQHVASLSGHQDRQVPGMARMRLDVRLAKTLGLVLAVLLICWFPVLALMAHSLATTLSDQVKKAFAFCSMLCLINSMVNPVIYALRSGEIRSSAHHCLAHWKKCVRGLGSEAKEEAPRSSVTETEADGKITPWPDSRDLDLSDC
hCB1, sequence (P21554 whole entry): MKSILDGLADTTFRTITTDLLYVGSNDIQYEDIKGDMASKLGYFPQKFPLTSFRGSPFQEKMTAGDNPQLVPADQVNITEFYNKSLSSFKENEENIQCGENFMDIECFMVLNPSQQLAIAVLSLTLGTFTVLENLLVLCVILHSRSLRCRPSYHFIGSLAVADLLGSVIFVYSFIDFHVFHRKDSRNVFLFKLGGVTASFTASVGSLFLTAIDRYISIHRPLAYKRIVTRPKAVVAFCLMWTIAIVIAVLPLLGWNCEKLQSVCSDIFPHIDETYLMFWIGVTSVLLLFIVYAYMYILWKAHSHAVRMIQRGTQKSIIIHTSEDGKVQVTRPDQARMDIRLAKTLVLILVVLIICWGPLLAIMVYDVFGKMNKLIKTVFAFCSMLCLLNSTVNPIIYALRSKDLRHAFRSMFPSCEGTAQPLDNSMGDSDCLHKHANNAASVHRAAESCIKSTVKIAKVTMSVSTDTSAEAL

Agonist Potency EC50 (nM) [1]: No measurable activity
Agonist Efficacy % [1, 9]: 0%
Inverse Agonist Potency (Kb, nM) [6]: No measurable activity
Agonist Efficacy % [7, 9]: −47.9 ± 4.7%
EC50 ([7]; read-out: Agonist Potency EC50): 0.58 ± 0.05 nM
Structure (SMILES): CC(C)(N[C@@H]1C[C@H](c2cccc(OC(F)(F)F)c2)N(c2ccc(C(F)(F)F)cc2)C1=O)c1ccc(C(F)(F)F)nc1.Cc1ccc(S(=O)(=O)O)cc1 [Example 2, (3R,5R)-3-[1-methyl-1-(6-trifluoromethyl-pyridin-3-yl)-ethylamino]-1-(4-trifluoromethyl-phenyl)-5-(3-trifluoromethoxy-phenyl)-pyrrolidin-2-one, 4-methylbenzenesulfonate (1:1)]
consumption of ethanol [2]: decreased in a dose-dependent manner
effect on clozapine-induced Fos reactivity ([3]; 1 and 10 mg/kg p.o. given with clozapine 8 mg/kg s.c.): enhancing the effects of clozapine alone
cortical and subcortical Fos reactivity, compound alone ([3]; Example 2 1 or 10 mg/kg p.o.): tend to or significantly enhance cortical and subcortical Fos reactivity
atypicality (ventral vs. dorsal striatal Fos impact) ([3]; Example 2 added to clozapine): a neural signature of greater atypicality
ethanol-seeking behavior and ethanol consumed ([4]; 15% ethanol, dose-dependently): Reduce ethanol-seeking behavior and the consumption of ethanol consumed
reduction of breakpoint ([4]; F(4,20)=4.52, p=0.009): in a dose-dependent manner
fat free mass (QNMR) [5]: minimal changes in fat free mass at one of the highest doses
cumulative body weight ([5]; 14-day oral treatment): reduction of cumulative body weight
T17 (dose producing a 17 gram body weight difference from vehicle) ([5]; 14-day oral treatment, estimated): 0.13 mg/kg
efficacy dose (T17) for change in body mass from control ([5]; daily oral, 14 days, as restated): 0.13 mg/kg/day
fat mass (QNMR) ([5]; doses 0.1-10 mg/kg): significant reductions in fat mass
cumulative food intake ([5]; once daily orally, 14 days): Decrease cumulative food intake
cortical monoamine and metabolite levels [8]: Increase rat cortical monoamine and metabolite levels

Reference: patent US7998985B2, “1,5-diphenyl-3-pyridinylamino-1,5-dihydropyrrolidin-2-one as CB1 receptor modulator” (Eli Lilly and Company, priority 2006, dated 2011)
